Where two headings read alike, the source gives them in different places.
Test system: panel of 55 breast cancer cell lines
Assay: Cell growth inhibition assay (Cell Titer Glo, 72 h, 9 doses; GI50, TGI, LC50)
Type: cell-based, human
Details: Homo sapiens, read-out: GI50 (converted)
[1] = 600MPE cell line, censored GI50 values
[2] = AU565, AU565 cell line, censored GI50 values
[3] = BT-20, BT20 cell line, censored GI50 values
[4] = BT-474, BT474 cell line, censored GI50 values
[5] = BT-483, BT483 cell line, censored GI50 values
[6] = BT-549, BT549 cell line, censored GI50 values
[7] = CAMA-1, CAMA1 cell line, censored GI50 values
[8] = HCC38, HCC38 cell line, censored GI50 values
[9] = HCC70, HCC70 cell line, censored GI50 values
[10] = HCC202, HCC202 cell line, censored GI50 values
[11] = HCC1143, HCC1143 cell line, censored GI50 values
[12] = HCC1187, HCC1187 cell line, censored GI50 values
[13] = HCC1395, HCC1395 cell line, censored GI50 values
[14] = HCC1419, HCC1419 cell line, censored GI50 values
[15] = HCC1428, HCC1428 cell line, censored GI50 values
[16] = HCC1500, HCC1500 cell line, censored GI50 values
[17] = HCC1806, HCC1806 cell line, censored GI50 values
[18] = HCC1937, HCC1937 cell line, censored GI50 values
[19] = HCC1954, HCC1954 cell line, censored GI50 values
[20] = HCC2185 cell line, censored GI50 values
[21] = HCC3153 cell line, censored GI50 values
[22] = MCF7, MCF7 cell line, censored GI50 values
[23] = MDA-MB-134-VI, MDAMB134VI cell line, censored GI50 values
[24] = MDA-MB-157, MDAMB157 cell line, censored GI50 values
[25] = MDA-MB-175-VII, MDAMB175VII cell line, censored GI50 values
[26] = MDA-MB-231, MDAMB231 cell line, censored GI50 values
[27] = MDA-MB-361, MDAMB361 cell line, censored GI50 values
[28] = MDA-MB-415, MDAMB415 cell line, censored GI50 values
[29] = MDA-MB-436, MDAMB436 cell line, censored GI50 values
[30] = MDA-MB-468, MDAMB468 cell line, censored GI50 values
[31] = SK-BR-3, SKBR3 cell line, censored GI50 values
[32] = SUM52PE, SUM52PE cell line, censored GI50 values
[33] = SUM149PT, SUM149PT cell line, censored GI50 values
[34] = SUM185PE, SUM185PE cell line, censored GI50 values
[35] = SUM225CWN, SUM225CWN cell line, censored GI50 values
[36] = SUM1315MO2, SUM1315MO2 cell line, censored GI50 values
[37] = SUM-159-PT, SUM159PT cell line, censored GI50 values
[38] = T47D, T47D cell line, censored GI50 values
[39] = UACC-893, UACC893 cell line, censored GI50 values
[40] = ZR-75-1, ZR751 cell line, censored GI50 values

`CNC(=O)c1cc(Oc2ccc(NC(=O)Nc3ccc(Cl)c(C(F)(F)F)c3)cc2)ccn1` [Sorafenib] was tested, and the GI50 [1] was 45.7 µM, the GI50 [2] was 178 µM and the GI50 (AU565, cell line AU565) was 178 µM. For the same molecule, the GI50 [3] was 63.1 µM, the GI50 (BT-20, cell line BT20) was 63.1 µM and the GI50 [4] was 100 µM. It also gave a GI50 (BT-474, cell line BT474) of 100 µM, a GI50 [5] of 11.7 µM and a GI50 (BT-483, cell line BT483) of 11.7 µM. For the same molecule, the GI50 [6] was 120 µM, the GI50 (BT-549, cell line BT549) was 120 µM and the GI50 [7] was 95.5 µM. For the same molecule, the GI50 (CAMA-1, cell line CAMA1) was 95.5 µM, the GI50 [8] was 87.1 µM and the GI50 (HCC38, cell line HCC38) was 87.1 µM. The GI50 [9] was 35.5 µM, the GI50 (HCC70, cell line HCC70) was 35.5 µM and the GI50 [10] was 72.4 µM. The GI50 (HCC202, cell line HCC202) was 72.4 µM, the GI50 [11] was 58.9 µM and the GI50 (HCC1143, cell line HCC1143) was 58.9 µM. For the same molecule, the GI50 [12] was 32.4 µM, the GI50 (HCC1187, cell line HCC1187) was 32.4 µM and the GI50 [13] was 47.9 µM. The GI50 (HCC1395, cell line HCC1395) was 47.9 µM, the GI50 [14] was 417 µM and the GI50 (HCC1419, cell line HCC1419) was 417 µM. The GI50 [15] was 45.7 µM, the GI50 (HCC1428, cell line HCC1428) was 45.7 µM and the GI50 [16] was 178 µM. The GI50 (HCC1500, cell line HCC1500) was 178 µM, the GI50 [17] was 148 µM and the GI50 (HCC1806, cell line HCC1806) was 148 µM. For the same molecule, the GI50 [18] was 513 µM, the GI50 (HCC1937, cell line HCC1937) was 513 µM and the GI50 [19] was 55 µM. The GI50 (HCC1954, cell line HCC1954) was 55 µM, the GI50 [20] was 14.8 µM and the GI50 [21] was 120 µM. It also gave a GI50 [22] of 64.6 µM, a GI50 (MCF7, cell line MCF7) of 64.6 µM and a GI50 [23] of 28.8 µM. The GI50 [24] was 240 µM, the GI50 [25] was 81.3 µM and the GI50 [26] was 89.1 µM. It also gave a GI50 [27] of 60.3 µM, a GI50 [28] of 95.5 µM and a GI50 [29] of 51.3 µM. The GI50 [30] was 158 µM, the GI50 [31] was 70.8 µM and the GI50 [32] was 1.7 µM. The GI50 [33] was 15.8 µM, the GI50 [34] was 1.48 µM and the GI50 [35] was 40.7 µM. For the same molecule, the GI50 [36] was 186 µM, the GI50 [37] was 21.9 µM and the GI50 [38] was 25.7 µM. It also gave a GI50 [39] of 331 µM, a GI50 [40] of 45.7 µM and a GI50 (cell line 600MPE) of 45.7 µM. It also gave a GI50 (cell line HCC2185) of 14.8 µM and a GI50 (cell line HCC3153) of 120 µM.
`CCN(CC)CCNC(=O)c1c(C)[nH]c(/C=C2\C(=O)Nc3ccc(F)cc32)c1C` [Sunitinib Malate] was tested, and the GI50 [1] was 4.27 µM, the GI50 [2] was 3.8 µM and the GI50 (AU565, cell line AU565) was 3.8 µM. It also gave a GI50 [3] of 16.6 µM, a GI50 (BT-20, cell line BT20) of 16.6 µM and a GI50 [4] of 17 µM. The GI50 (BT-474, cell line BT474) was 17 µM, the GI50 [5] was 18.6 µM and the GI50 (BT-483, cell line BT483) was 18.6 µM. For the same molecule, the GI50 [6] was 5.13 µM, the GI50 (BT-549, cell line BT549) was 5.13 µM and the GI50 [7] was 8.71 µM. For the same molecule, the GI50 (CAMA-1, cell line CAMA1) was 8.71 µM, the GI50 [8] was 5.75 µM and the GI50 (HCC38, cell line HCC38) was 5.75 µM. For the same molecule, the GI50 [9] was 2.51 µM, the GI50 (HCC70, cell line HCC70) was 2.51 µM and the GI50 [10] was 9.33 µM. The GI50 (HCC202, cell line HCC202) was 9.33 µM, the GI50 [11] was 6.92 µM and the GI50 (HCC1143, cell line HCC1143) was 6.92 µM. The GI50 [12] was 5.01 µM, the GI50 (HCC1187, cell line HCC1187) was 5.01 µM and the GI50 [13] was 4.68 µM. The GI50 (HCC1395, cell line HCC1395) was 4.68 µM, the GI50 [14] was 17.8 µM and the GI50 (HCC1419, cell line HCC1419) was 17.8 µM. For the same molecule, the GI50 [15] was 5.13 µM, the GI50 (HCC1428, cell line HCC1428) was 5.13 µM and the GI50 [16] was 6.46 µM. It also gave a GI50 (HCC1500, cell line HCC1500) of 6.46 µM, a GI50 [17] of 5.37 µM and a GI50 (HCC1806, cell line HCC1806) of 5.37 µM. For the same molecule, the GI50 [18] was 6.92 µM, the GI50 (HCC1937, cell line HCC1937) was 6.92 µM and the GI50 [19] was 5.62 µM. For the same molecule, the GI50 (HCC1954, cell line HCC1954) was 5.62 µM, the GI50 [20] was 20.4 µM and the GI50 [21] was 11 µM. For the same molecule, the GI50 (LY2 cell line, censored GI50 values) was 6.46 µM, the GI50 [22] was 5.89 µM and the GI50 (MCF7, cell line MCF7) was 5.89 µM. It also gave a GI50 [23] of 10.7 µM, a GI50 [24] of 6.31 µM and a GI50 [25] of 5.5 µM. The GI50 [26] was 3.63 µM, the GI50 [27] was 11.7 µM and the GI50 [28] was 5.62 µM. For the same molecule, the GI50 [29] was 11.2 µM, the GI50 (MDA-MB-453, MDAMB453 cell line, censored GI50 values) was 4.17 µM and the GI50 [30] was 4.47 µM. For the same molecule, the GI50 [31] was 6.76 µM, the GI50 [32] was 1.15 µM and the GI50 [33] was 2.69 µM. For the same molecule, the GI50 [34] was 1.05 µM, the GI50 [35] was 6.31 µM and the GI50 [36] was 7.41 µM. For the same molecule, the GI50 [37] was 1.55 µM, the GI50 [38] was 8.32 µM and the GI50 [39] was 0.871 µM. It also gave a GI50 [40] of 13.2 µM, a GI50 (ZR-75B, ZR75B cell line, censored GI50 values) of 7.59 µM and a GI50 (cell line 600MPE) of 4.27 µM. The GI50 (cell line HCC2185) was 20.4 µM, the GI50 (cell line HCC3153) was 11 µM and the GI50 (cell line LY2) was 6.46 µM.
